The IC50 is the midpoint of a concentration-inhibition curve.

In assay [1] the target is BACE2 (Homo sapiens (Human), UniProt Q9Y5Z0). In words: In vitro enzymatic BACE2 FRET assay. It is filed as biochemical. To be noted: read-out: IC50 IP (μM) BACE2 Enzyme.
Source text: In Vitro Enzymatic BACE1 and BACE2 FRET (Fluorescence Resonance Energy Transfer) Assays (Enzyme Assay Data in Table 1)
The target in assay [2] is Cathepsin D (CatD) (Homo sapiens (Human), UniProt P07339). In words: CatD assay. It is filed as biochemical. To be noted: read-out: IC50 IP (μM) CatD.
Chain of Cathepsin D (CatD) (P07339 65-412, species assumed): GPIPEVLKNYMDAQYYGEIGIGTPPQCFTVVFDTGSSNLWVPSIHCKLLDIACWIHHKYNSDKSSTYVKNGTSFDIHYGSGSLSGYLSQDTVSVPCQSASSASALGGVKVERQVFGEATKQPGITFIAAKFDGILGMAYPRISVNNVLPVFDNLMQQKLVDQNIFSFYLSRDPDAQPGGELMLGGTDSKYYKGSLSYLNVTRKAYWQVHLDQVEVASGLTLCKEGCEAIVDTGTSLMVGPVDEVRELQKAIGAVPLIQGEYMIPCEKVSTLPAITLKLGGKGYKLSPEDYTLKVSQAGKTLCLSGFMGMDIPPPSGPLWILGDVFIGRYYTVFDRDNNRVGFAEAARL

Chain of BACE2 (Q9Y5Z0 63-518): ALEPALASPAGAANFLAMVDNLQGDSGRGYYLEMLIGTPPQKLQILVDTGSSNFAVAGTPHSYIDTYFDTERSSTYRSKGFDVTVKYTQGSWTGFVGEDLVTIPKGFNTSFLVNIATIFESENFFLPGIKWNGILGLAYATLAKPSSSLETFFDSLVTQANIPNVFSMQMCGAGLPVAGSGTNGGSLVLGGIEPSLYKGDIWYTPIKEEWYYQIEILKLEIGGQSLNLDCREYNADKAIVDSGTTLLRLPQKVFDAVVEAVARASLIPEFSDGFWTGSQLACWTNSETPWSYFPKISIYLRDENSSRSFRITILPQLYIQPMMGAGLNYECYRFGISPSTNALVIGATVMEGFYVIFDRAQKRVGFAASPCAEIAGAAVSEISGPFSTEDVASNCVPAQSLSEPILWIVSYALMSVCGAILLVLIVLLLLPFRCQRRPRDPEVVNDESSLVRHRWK

Consider `C[C@]1(c2cc(/C=C(\F)c3ccc(C#N)cn3)ccc2F)N=C(N)S[C@@]2(C(=O)NC3CC3)C[C@H]21` [Example 121, (1S,5S,6S)-3-amino-5-(5-((Z)-2-(5-cyanopyridin-2-yl)-2-fluorovinyl)-2-fluorophenyl)-N-cyclopropyl-5-methyl-2-thia-4-azabicyclo[4.1.0]hept-3-ene-1-carboxamide], for which the IC50 turned out to be 0.164 µM in assay [1] and 52.9 µM in assay [2].
In the same order, the values of `C[C@]1(c2cc(/C=C(\F)c3ccc(C#N)cn3)ccc2F)N=C(N)S[C@@]2(C(=O)NC3CCOCC3)C[C@H]21` [Example 128, (1S,5S,6S)-3-amino-5-(5-((Z)-2-(5-cyanopyridin-2-yl)-2-fluorovinyl)-2-fluorophenyl)-5-methyl-N-(tetrahydro-2H-pyran-4-yl)-2-thia-4-azabicyclo[4.1.0]hept-3-ene-1-carboxamide] are 0.0892 µM and 144 µM.
In the same order, the values of `C[C@]1(c2cc(/C=C(\F)c3ccc(C#N)cn3)ccc2F)N=C(N)S[C@@]2(C(=O)N3CCN(c4ccccc4)CC3)C[C@H]21` [Example 131, 6-((Z)-2-(3-((1S,5S,6S)-3-amino-5-methyl-1-(4-phenylpiperazine-1-carbonyl)-2-thia-4-azabicyclo[4.1.0]hept-3-en-5-yl)-4-fluorophenyl)-1-fluorovinyl)nicotinonitrile] are 0.015 µM and 96.9 µM.
As to `C[C@]1(c2cc(/C=C(\F)c3ccc(C#N)cn3)ccc2F)N=C(N)S[C@@]2(C(=O)N3CC4CC3CO4)C[C@H]21` (stereo partly drawn) [Example 132, 6-((Z)-2-(3-((1S,5S,6S)-3-amino-1-(2-oxa-5-azabicyclo[2.2.1]heptane-5-carbonyl)-5-methyl-2-thia-4-azabicyclo[4.1.0]hept-3-en-5-yl)-4-fluorophenyl)-1-fluorovinyl)nicotinonitrile], the IC50 in assay [1] stood at 0.0758 µM; in assay [2] it was 1690 µM.
The matching figures for `C[C@@H]1CC[C@@H](C)N1C(=O)[C@]12C[C@H]1[C@@](C)(c1cc(/C=C(\F)c3ccc(C#N)cn3)ccc1F)N=C(N)S2` [Example 133, 6-((Z)-2-(3-((1S,5S,6S)-3-amino-1-((2R,5R)-2,5-dimethylpyrrolidine-1-carbonyl)-5-methyl-2-thia-4-azabicyclo[4.1.0]hept-3-en-5-yl)-4-fluorophenyl)-1-fluorovinyl)nicotinonitrile]: 0.099 µM and 146 µM.
In the same order, the values of `CN(C)[C@@H]1CCN(C(=O)[C@]23C[C@H]2[C@@](C)(c2cc(/C=C(\F)c4ccc(C#N)cn4)ccc2F)N=C(N)S3)C1` [Example 134, 6-((Z)-2-(3-((1S,5S,6S)-3-amino-1-((R)-3-(dimethylamino)pyrrolidine-1-carbonyl)-5-methyl-2-thia-4-azabicyclo[4.1.0]hept-3-en-5-yl)-4-fluorophenyl)-1-fluorovinyl)nicotinonitrile] are 0.8 µM and 400 µM.
The matching figures for `C[C@]1(c2cc(/C=C(\F)c3ccc(C#N)cn3)ccc2F)N=C(N)S[C@@]2(C(=O)N3CC[C@@H]4CCCC[C@H]4C3)C[C@H]21` [Example 135, 6-((Z)-2-(3-((1S,5S,6S)-3-amino-1-((4aS,8aR)-decahydroisoquinoline-2-carbonyl)-5-methyl-2-thia-4-azabicyclo[4.1.0]hept-3-en-5-yl)-4-fluorophenyl)-1-fluorovinyl)nicotinonitrile]: 0.00166 µM and 5.5 µM.
Take `CC1CC(C)CN(C(=O)[C@]23C[C@H]2[C@@](C)(c2cc(/C=C(\F)c4ccc(C#N)cn4)ccc2F)N=C(N)S3)C1` (stereo partly drawn) [Example 137, 6-((Z)-2-(3-((1S,5S,6S)-3-amino-1-(3,5-dimethylpiperidine-1-carbonyl)-5-methyl-2-thia-4-azabicyclo[4.1.0]hept-3-en-5-yl)-4-fluorophenyl)-1-fluorovinyl)nicotinonitrile]: the IC50 in assay [1] came out at 0.21 µM; in assay [2] it was 43.2 µM.
In the same order, the values of `CC1CCCN1C(=O)[C@]12C[C@H]1[C@@](C)(c1cc(/C=C(\F)c3ccc(C#N)cn3)ccc1F)N=C(N)S2` (stereo partly drawn) [Example 138, 6-((Z)-2-(3-((1S,5S,6S)-3-amino-5-methyl-1-(2-methylpyrrolidine-1-carbonyl)-2-thia-4-azabicyclo[4.1.0]hept-3-en-5-yl)-4-fluorophenyl)-1-fluorovinyl)nicotinonitrile] are 0.0924 µM and 70.9 µM.
In the case of `C[C@]1(c2cc(/C=C(\F)c3ccc(C#N)cn3)ccc2F)N=C(N)S[C@@]2(C(=O)N3CCC(C(F)(F)F)CC3)C[C@H]21` [Example 139, 6-((Z)-2-(3-((1S,5S,6S)-3-amino-5-methyl-1-(4-(trifluoromethyl)piperidine-1-carbonyl)-2-thia-4-azabicyclo[4.1.0]hept-3-en-5-yl)-4-fluorophenyl)-1-fluorovinyl)nicotinonitrile], the IC50 in assay [1] came to 0.00257 µM; in assay [2] it was 81.5 µM.
The matching figures for `C[C@]1(c2cc(/C=C(\F)c3ccc(C#N)cn3)ccc2F)N=C(N)S[C@@]2(C(=O)N3CCCC(c4ccccc4)C3)C[C@H]21` (stereo partly drawn) [Example 140, 6-((Z)-2-(3-((1S,5S,6S)-3-amino-5-methyl-1-(3-phenylpiperidine-1-carbonyl)-2-thia-4-azabicyclo[4.1.0]hept-3-en-5-yl)-4-fluorophenyl)-1-fluorovinyl)nicotinonitrile]: 0.0131 µM and 12.8 µM.
The matching figures for `C[C@]1(c2cc(/C=C(\F)c3ccc(C#N)cn3)ccc2F)N=C(N)S[C@@]2(C(=O)N3CCN(CC4CC4)CC3)C[C@H]21` [Example 141, 6-((Z)-2-(3-((1S,5S,6S)-3-amino-1-(4-(cyclopropylmethyl)piperazine-1-carbonyl)-5-methyl-2-thia-4-azabicyclo[4.1.0]hept-3-en-5-yl)-4-fluorophenyl)-1-fluorovinyl)nicotinonitrile]: 0.336 µM and 400 µM.
The matching figures for `C[C@]1(c2cc(/C=C(\F)c3ccc(C#N)cn3)ccc2F)N=C(N)S[C@@]2(C(=O)N3CCCC(C#N)C3)C[C@H]21` (stereo partly drawn) [Example 143, 6-((Z)-2-(3-((1S,5S,6S)-3-amino-1-(3-cyanopiperidine-1-carbonyl)-5-methyl-2-thia-4-azabicyclo[4.1.0]hept-3-en-5-yl)-4-fluorophenyl)-1-fluorovinyl)nicotinonitrile]: 0.0127 µM and 152 µM.
With `C[C@]1(c2cc(/C=C(\F)c3ccc(C#N)cn3)ccc2F)N=C(N)S[C@@]2(C(=O)N3CCNC(=O)C3)C[C@H]21` [Example 144, 6-((Z)-2-(3-((1S,5S,6S)-3-amino-5-methyl-1-(3-oxopiperazine-1-carbonyl)-2-thia-4-azabicyclo[4.1.0]hept-3-en-5-yl)-4-fluorophenyl)-1-fluorovinyl)nicotinonitrile], the results for the IC50 in assay [1] and in assay [2] were 0.0282 µM and 400 µM, respectively.
The matching figures for `CC1CCCN(C(=O)[C@]23C[C@H]2[C@@](C)(c2cc(/C=C(\F)c4ccc(C#N)cn4)ccc2F)N=C(N)S3)C1` (stereo partly drawn) [Example 145, 6-((Z)-2-(3-((1S,5S,6S)-3-amino-5-methyl-1-(3-methylpiperidine-1-carbonyl)-2-thia-4-azabicyclo[4.1.0]hept-3-en-5-yl)-4-fluorophenyl)-1-fluorovinyl)nicotinonitrile]: 0.0174 µM and 42.6 µM.
For `COC(=O)[C@]12C[C@H]1[C@@](C)(c1cc(/C=C(\F)c3cnc(Br)cn3)ccc1F)N=C(N)S2` [Example 148, (1S,5S,6S)-methyl 3-amino-5-(5-((Z)-2-(5-bromopyrazin-2-yl)-2-fluorovinyl)-2-fluorophenyl)-5-methyl-2-thia-4-azabicyclo[4.1.0]hept-3-ene-1-carboxylate], the values for the IC50 in assay [1] and in assay [2] were 1.03 µM and 231 µM, respectively.
On to `C#CCOc1cnc(/C(F)=C/c2ccc(F)c([C@@]3(C)N=C(N)S[C@@]4(C(=O)N(C)C)C[C@H]43)c2)cn1` [Example 153, (1S,5S,6S)-3-amino-5-(2-fluoro-5-((Z)-2-fluoro-2-(5-(prop-2-yn-1-yloxy)pyrazin-2-yl)vinyl)phenyl)-N,N,5-trimethyl-2-thia-4-azabicyclo[4.1.0]hept-3-ene-1-carboxamide], for which the IC50 came out at 0.0518 µM in assay [1] and 106 µM in assay [2].
The matching figures for `CN(C)C(=O)[C@]12C[C@H]1[C@@](C)(c1cc(/C=C(\F)c3cnc(OCC(F)(F)F)cn3)ccc1F)N=C(N)S2` [Example 155, (1S,5S,6S)-3-amino-5-(2-fluoro-5-((Z)-2-fluoro-2-(5-(2,2,2-trifluoroethoxy)pyrazin-2-yl)vinyl)phenyl)-N,N,5-trimethyl-2-thia-4-azabicyclo[4.1.0]hept-3-ene-1-carboxamide]: 0.0823 µM and 167 µM.
Regarding `CC(Oc1cnc(/C(F)=C/c2ccc(F)c([C@@]3(C)N=C(N)S[C@@]4(C(=O)N(C)C)C[C@H]43)c2)cn1)c1ncco1` (stereo partly drawn) [Example 156, (1S,5S,6S)-3-amino-5-(2-fluoro-5-((Z)-2-fluoro-2-(5-(-1-(oxazol-2-yl)ethoxy)pyrazin-2-yl)vinyl)phenyl)-N,N,5-trimethyl-2-thia-4-azabicyclo[4.1.0]hept-3-ene-1-carboxamide], the values for the IC50 in assay [1] and in assay [2] were 0.135 µM and 93.8 µM, respectively.
In the same order, the values of `CN(C)C(=O)[C@]12C[C@H]1[C@@](C)(c1cc(/C=C(\F)c3cnc(Br)cn3)ccc1F)N=C(N)S2` [Example 157, (1S,5S,6S)-3-amino-5-(5-((Z)-2-(5-bromopyrazin-2-yl)-2-fluorovinyl)-2-fluorophenyl)-N,N,5-trimethyl-2-thia-4-azabicyclo[4.1.0]hept-3-ene-1-carboxamide] are 0.0262 µM and 39.1 µM.
In the same order, the values of `CN(C)C(=O)[C@]12C[C@H]1[C@@](C)(c1cc(/C=C(\F)c3cnc(C#N)cn3)ccc1F)N=C(N)S2` [Example 169, (1S,5S,6S)-3-amino-5-(5-((Z)-2-(5-cyanopyrazin-2-yl)-2-fluorovinyl)-2-fluorophenyl)-N,N,5-trimethyl-2-thia-4-azabicyclo[4.1.0]hept-3-ene-1-carboxamide] are 0.0174 µM and 95.5 µM.
